These results are taken from patent US12168085B2, “Surgical system and methods of use” (priority 2021, dated 2024).

Molecules are shown by their SMILES.

In one data set the test system is myofibroblast formation. The conditions noted are these: Ajmal et al. (2003); cited from earlier work.
Data set [1] is described as follows: time to reach plasma concentrations. Particulars: when given preoperatively. Type of data set: in vivo.

In the case of `O=S(=O)([O-])CCS.[Na+]` [MESNA, sodium 2-mercaptoethane sulfonate], the “effect on myofibroblast formation” value in the data set on myofibroblast formation is “diminish myofibroblast formation”.
For the compound `NC[C@H]1CC[C@H](C(=O)O)CC1` [tranexamic acid, trans-4-(aminomethyl)cyclohexanecarboxylic acid], the “time to reach plasma concentrations” value in data set [1] was in the range of 5 to 15 min.
